“Also recorded” adds a separate entry of the source. Read-outs that look alike come from different tables or passages of the source.
Key:
tyrosinase [1] = conditions: previously reported, cited from earlier work
[2] = target: tyrosinase (EC 1.14.18.1) (Agaricus bisporus, UniProt C7FF04); experiment: Tyrosinase inhibitory assay (L-Dopa oxidation); format: biochemical; conditions: for IC50: tyrosinase, L-Dopa substrate, mean of three independent experiments
mTYR = tested on: mTYR; design: method as in PMID 29427586; conditions: previously reported; cited from earlier work
hTYR = tested on: hTYR; design: method as in PMID 29427586; conditions: previously reported; cited from earlier work
tyrosinase [3] = experiment: UV/VIS spectra of tyrosinase with L-Dopa and inhibitor; format: biochemical; conditions: 475 nm, L-Dopa + tyrosinase, various concentrations of inhibitor
Protocol: UV spectra of compound 6a, tyrosinase and L-Dopa were analyzed separately. […] However, when L-Dopa was added to tyrosinase without an inhibitor, the highest absorbance was observed, confirming the generation of dopachrome.

tyrosinase [4] = experiment: Enzyme kinetic studies (Lineweaver-Burk, L-Dopa substrate); format: biochemical
Source text: The Lineweaver–Burk reciprocal plot was provided by plotting 1/V against 1/[S] at variable concentrations of the L-Dopa.

Chain of tyrosinase (EC 1.14.18.1) (C7FF04 1-392): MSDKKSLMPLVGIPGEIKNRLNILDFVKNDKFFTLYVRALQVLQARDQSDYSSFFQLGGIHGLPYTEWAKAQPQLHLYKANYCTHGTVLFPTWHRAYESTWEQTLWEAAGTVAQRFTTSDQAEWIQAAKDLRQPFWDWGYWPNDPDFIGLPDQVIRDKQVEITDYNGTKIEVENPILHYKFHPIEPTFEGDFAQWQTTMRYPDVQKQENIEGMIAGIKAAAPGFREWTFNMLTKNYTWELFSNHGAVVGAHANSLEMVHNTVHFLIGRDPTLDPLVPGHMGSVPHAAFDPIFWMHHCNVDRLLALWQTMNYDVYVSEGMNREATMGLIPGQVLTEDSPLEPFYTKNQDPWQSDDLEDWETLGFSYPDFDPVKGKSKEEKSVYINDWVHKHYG

Row | SMILES | IC50 (tyrosinase [1]) [µM] | IC50 [2] [µM] | melting point [°C] | also measured
1 | Cn1cc[nH]c1=S [C, methimazole] | 114 |  |  | 
2 | CCOC(=O)C1=C(C)N=C2SC=C(C)N2C1c1ccc(OC)cc1 (centres unmarked) [Compound 6i, Ethyl 5-(4-methoxyphenyl)-3,7-dimethyl-5H-thiazolo[3,2-a]pyrimidine-6-carboxylate] |  | 35.7 | 111 to 112 | 
3 | NC(=S)N/N=C/c1cc(COC(=O)c2ccccc2)cs1 [G] | 0.068 |  |  | 
4 | CCOC(=O)C1=C(C)N=C2SC=C(C)N2C1c1ccc(C)cc1 (centres unmarked) [Compound 6h, Ethyl 3,7-dimethyl-5-(p-tolyl)-5H-thiazolo[3,2-a]pyrimidine-6-carboxylate] |  | > 250 | 114 to 115 | tyrosinase inhibitory activity (in words) ([2]; SAR discussion): complete loss of activity
5 | CCOC(=O)C1=C(N)Oc2c(ccc3ccccc23)C1c1ccc(N(C)C)cc1 (centres unmarked) [F] | 34.1 |  |  | 
6 | CC(C)C(=O)Nc1nc(-c2ccc(O)cc2O)cs1 [Compound E] |  |  |  | IC50 (mTYR): 108 µM; IC50 (hTYR): 1.1 µM
7 | CCOC(=O)C1=C(C)N=C2SC=C(C)N2C1c1cccc([N+](=O)[O-])c1 (centres unmarked) [Compound 6g, Ethyl 3,7-dimethyl-5-(3-nitrophenyl)-5H-thiazolo[3,2-a]pyrimidine-6-carboxylate] |  | 45.2 | 151 to 152 | 
8 | CCOC(=O)C1=C(C)N=C2SC=C(C)N2C1c1ccccc1 (centres unmarked) [Compound 6a, Ethyl 3,7-dimethyl-5-phenyl-5H-thiazolo[3,2-a]pyrimidine-6-carboxylate] |  | 28.5 | 110 to 111 | absorbance intensity (dopachrome formation) (tyrosinase [3]): decreased dose-dependently; type of inhibition (tyrosinase [4]; Lineweaver-Burk plot, L-Dopa substrate): noncompetitive inhibitor; also recorded: noncompetitive mode of inhibition; Km (tyrosinase [4]; inhibitor concentration 5 µM): 690 µM; Vmax (tyrosinase [4]; inhibitor concentration 5 µM): 22.22 mM/min; Km (tyrosinase [4]; inhibitor concentration 10 µM): 680 µM; Vmax (tyrosinase [4]; inhibitor concentration 10 µM): 12.66 mM/min; Km (tyrosinase [4]; inhibitor concentration 25 µM): 650 µM; Vmax (tyrosinase [4]; inhibitor concentration 25 µM): 10.35 mM/min; Km (tyrosinase [4]; inhibitor concentration 50 µM): 690 µM; Vmax (tyrosinase [4]; inhibitor concentration 50 µM): 8.40 mM/min; Km (tyrosinase [4]; inhibitor concentration 100 µM): 660 µM; Vmax (tyrosinase [4]; inhibitor concentration 100 µM): 5.15 mM/min
9 | CCOC(=O)C1=C(C)N=C2SC=C(C)N2C1c1cccc(F)c1 (centres unmarked) [Compound 6c, Ethyl 5-(3-fluorophenyl)-3,7-dimethyl-5H-thiazolo[3,2-a]pyrimidine-6-carboxylate] |  | 56 | 113 to 114 | 
10 | CCOC(=O)C1=C(C)N=C2SC=C(C)N2C1c1cccc(Br)c1 (centres unmarked) [Compound 6f, Ethyl 5-(3-bromophenyl)-3,7-dimethyl-5H-thiazolo[3,2-a]pyrimidine-6-carboxylate] |  | 85.3 | 112 to 113 | 
11 | CCOC(=O)C1=C(C)N=C2SC=C(C)N2C1c1ccc(Cl)cc1 (centres unmarked) [Compound 6e, Ethyl 5-(4-chlorophenyl)-3,7-dimethyl-5H-thiazolo[3,2-a]pyrimidine-6-carboxylate] |  | 37.7 | 113 to 114 | 
12 | CCCCC(=O)NC(=S)Nc1ccc(OC)cc1 [B] | 1.56 |  |  | IC50 (tyrosinase [1]; listed as compound B): 5.4 µM
13 | CCOC(=O)C1=C(C)N=C2SC=C(C)N2C1c1ccccc1Cl (centres unmarked) [Compound 6d, Ethyl 5-(2-chlorophenyl)-3,7-dimethyl-5H-thiazolo[3,2-a]pyrimidine-6-carboxylate] |  | 34.2 | 114 to 115 | 
14 | CCOC(=O)C1=C(C)N=C2SC=C(C)N2C1c1ccc(O)c(OC)c1 (centres unmarked) [Compound 6j, Ethyl 5-(4-hydroxy-3-methoxyphenyl)-3,7-dimethyl-5H-thiazolo[3,2-a]pyrimidine-6-carboxylate] |  | 40.8 | 121 to 122 | 
15 | Nc1nc(-c2ccc(O)cc2O)cs1 [Compound D] | 51 |  |  | 
16 | CCOC(=O)C1=C(C)N=C2SC=C(C)N2C1c1ccccc1F (centres unmarked) [Compound 6b, Ethyl 5-(2-fluorophenyl)-3,7-dimethyl-5H-thiazolo[3,2-a]pyrimidine-6-carboxylate] |  | 40.8 | 111 to 112 | 
